Measured values taken from ChEMBL document CHEMBL5131509 (Eur J Med Chem, 2022).
pIC50: −log10 of the molar value. The source made the active and inactive calls. The rule behind the calls is not given here.

Key:
in vitro [1] = conditions: PAMPA
Description: (§1) Permeability of compound incubated for 3 hrs by UV plate reader based PAMPA assay

Vero C1008 = conditions: chlorocebus sabaeus, vero c1008, 48 h
Description: (§2) Cytotoxicity against African Green monkey Vero E6 cells assessed as reduction in cell viability measured after 48 hrs by MTT assay

in vitro [2] = conditions: chlorocebus sabaeus, Vero E6 cells
Description: Cytotoxicity against African green monkey Vero E6 cells assessed as reduction in cell viability preincubated for 2 hrs followed by SARS-CoV-2 addition measured after 24 hrs by CPE assay

[3] = Selectivity ratio of CC50 for African Green monkey Vero E6 cells to IC50 for SARS-CoV-2; format: toxicity, Vero C1008
SARS-CoV-2 = test: Antiviral activity against SARS-CoV-2 infected in African Green monkey Vero cells assessed as inhibition of viral cytopathic effect measured after 72 hrs by inverted microscopic method; format: functional, organism-based, Vero E6; conditions: Severe acute respiratory syndrome coronavirus 2, Vero C1008, 72 h
in vitro [4] = conditions: chlorocebus sabaeus, Vero E6 cells; remark: listed apart in the source
Description: as §2

[5] = Metabolic stability of the compound in human liver microsomes S9 fraction preincubated with NADPH for 10 mins followed by compound addition at 50 uM measured upto 360 mins by HPLC analysis; format: ADME, subcellular; conditions: read-out: Stability
Vero E6 = format: cell-based; conditions: Chlorocebus aethiops, time 1.0 hrs
[6] = Stability of compound in human plasma at 100 uM by HPLC analysis; format: ADME, cell-free; conditions: read-out: Stability
[7] = Oral bioavailability in rat at 5 mg/kg; format: ADME, organism-based; conditions: in vivo
[8] = pampa, 3 h
Description: as §1

`O=C(Nc1ccc(N2CCCCC2)cc1)c1cc(Cl)ccc1O` showed a Papp at 3 h (in vitro [1]) of 43.3 ×10⁻⁶ cm/s and a CC50 (Vero C1008) of 65.9 µM.

`O=C(Nc1ccc([N+](=O)[O-])cc1Cl)c1ccccc1O` gave a CC50 at 24 h (in vitro [2]) of 100 µM, a Papp at 3 h (in vitro [1]) of 15.3 ×10⁻⁶ cm/s and a selectivity ratio [3] of 1.2. For the same compound, the CC50 (Vero C1008) was 2.03 µM and the pIC50 (SARS-CoV-2) was 5.77.

For `O=C(Nc1ccc(C(F)(F)F)cc1)c1cc(Cl)ccc1O`, the Papp at 3 h (in vitro [1]) was 6.9 ×10⁻⁶ cm/s and the pIC50 (SARS-CoV-2) was 6.42.

`O=C(Nc1ccc(O)cc1)c1cc(Cl)ccc1O` gave a Papp at 3 h (in vitro [1]) of 33.1 ×10⁻⁶ cm/s and a CC50 at 48 h (in vitro [4]) greater than 100 µM.

With `O=C(Nc1ccccc1)c1cc(Cl)ccc1O` the Papp at 3 h (in vitro [1]) was 16 ×10⁻⁶ cm/s, the CC50 (Vero C1008) was 19.2 µM and the pIC50 (SARS-CoV-2) was 5.07.

`O=C(Nc1ccc([N+](=O)[O-])cc1Cl)c1cc(F)ccc1O` showed a Papp at 3 h (in vitro [1]) of 30.7 ×10⁻⁶ cm/s and a CC50 (Vero C1008) of 8.15 µM.

Work on `O=C(Nc1cccc(Cl)c1)c1cc(Cl)ccc1O` yielded a Papp at 3 h (in vitro [1]) of 8.6 ×10⁻⁶ cm/s, a CC50 (Vero C1008) of 2.46 µM and a pIC50 (SARS-CoV-2) of 6.41. For the same compound, the remaining at 6 h, 50 µM [5] was 33%.

`COc1ccc2cc1Oc1ccc(cc1)C[C@H]1c3c(cc4c(c3Oc3cc5c(cc3OC)CCN(C)[C@@H]5C2)OCO4)CCN1C` [CEPHARANTHINE] gave a pIC50 (SARS-CoV-2) of 5.55.

With `O=C(Nc1ccc([N+](=O)[O-])c(Cl)c1)c1cc(Cl)ccc1O` the inhibition (Vero E6) was “Active”, the remaining at 100 µM [6] was 78% and the pIC50 (SARS-CoV-2) was 7.24. For the same compound, the remaining at 6 h, 50 µM [5] was 41%.

In the case of `O=C(Nc1ccc([N+](=O)[O-])cc1Cl)c1cc(Cl)ccc1O` [NICLOSAMIDE], the Papp at 3 h (in vitro [1]) was 8.5 ×10⁻⁶ cm/s, the inhibition (Vero E6) was “Active” and the CC50 (Vero C1008) was 1.03 µM. The bioavailability [7] was 10% and the pIC50 (SARS-CoV-2) was 6.40.

With `O=C(Nc1ccc([N+](=O)[O-])cc1)c1cc(Cl)ccc1O` the permeability [8] was 12.4 10^-6 cm/s and the pIC50 (SARS-CoV-2) was 5.95.

In the case of `O=C(Nc1cccc(F)c1)c1cc(Cl)ccc1O`, the Papp at 3 h (in vitro [1]) was 3.7 ×10⁻⁶ cm/s and the CC50 (Vero C1008) was 3.63 µM.

Compound `O=C(Nc1cccc([N+](=O)[O-])c1)c1cc(Cl)ccc1O` has a Papp at 3 h (in vitro [1]) of 19.5 ×10⁻⁶ cm/s, a CC50 (Vero C1008) of 3.53 µM and a pIC50 (SARS-CoV-2) of 5.89.

`Cc1ccc(CNC(=O)c2cc(Cl)ccc2O)cc1` showed a Papp at 3 h (in vitro [1]) of 42.6 ×10⁻⁶ cm/s and a CC50 (Vero C1008) of 47.7 µM.

Work on `CNC(=C[N+](=O)[O-])NCCSCc1ccc(CN(C)C)o1` [RANITIDINE] yielded a Papp at 3 h (in vitro [1]) of 1.6 ×10⁻⁶ cm/s.

Compound `O=C(Nc1cccc(C(F)(F)F)c1)c1cc(Cl)ccc1O` has a CC50 at 24 h (in vitro [2]) of 100 µM, a Papp at 3 h (in vitro [1]) of 4.2 ×10⁻⁶ cm/s and a CC50 (Vero C1008) of 5.95 µM. It also gave a pIC50 (SARS-CoV-2) of 6.31 and a remaining at 6 h, 50 µM [5] of 47%.

With `O=C(Nc1cccc(O)c1)c1cc(Cl)ccc1O` the Papp at 3 h (in vitro [1]) was 15.9 ×10⁻⁶ cm/s and the CC50 at 48 h (in vitro [4]) was greater than 100 µM.

Work on `O=C(Nc1ccc(F)c(Cl)c1)c1cc(Cl)ccc1O` yielded a Papp at 3 h (in vitro [1]) of 11.5 ×10⁻⁶ cm/s and a CC50 (Vero C1008) of 2.44 µM.

With `O=C(Nc1ccc(F)cc1)c1cc(Cl)ccc1O` the permeability [8] was 18.2 10^-6 cm/s and the CC50 (Vero C1008) was 6.78 µM.

Compound `Cc1cccc(CNC(=O)c2cc(Cl)ccc2O)c1` has a Papp at 3 h (in vitro [1]) of 28.4 ×10⁻⁶ cm/s and a CC50 (Vero C1008) of 82.4 µM.

`O=C(Nc1ccc(O[C@@H]2O[C@H](CO)[C@@H](O)[C@H](O)[C@H]2O)cc1)c1cc(Cl)ccc1O` gave a Papp at 3 h (in vitro [1]) of 1.9 ×10⁻⁶ cm/s and a CC50 (Vero C1008) greater than 100 µM.

Work on `Cc1c(O)cccc1C(=O)N[C@@H](CSc1ccccc1)[C@H](O)CN1C[C@H]2CCCC[C@H]2C[C@H]1C(=O)NC(C)(C)C` yielded a pIC50 (SARS-CoV-2) of 5.48.

In the case of `Cc1ccc(C(=O)Nc2ccc([N+](=O)[O-])cc2Cl)c(O)c1`, the Papp at 3 h (in vitro [1]) was 6.1 ×10⁻⁶ cm/s and the CC50 (Vero C1008) was 21.6 µM.

`Cc1ccc(O)c(C(=O)Nc2ccc([N+](=O)[O-])cc2Cl)c1` gave a Papp at 3 h (in vitro [1]) of 20.9 ×10⁻⁶ cm/s and a CC50 (Vero C1008) of 5.68 µM.

`CC(C)(C)c1cccc(NC(=O)c2cc(Cl)ccc2O)c1` gave a Papp at 3 h (in vitro [1]) of 18.7 ×10⁻⁶ cm/s, a selectivity ratio [3] of 1.6 and a CC50 (Vero C1008) of 2.36 µM. For the same compound, the pIC50 (SARS-CoV-2) was 5.82.

`O=C(Nc1ccc([N+](=O)[O-])cc1Cl)c1ccccc1` showed a Papp at 3 h (in vitro [1]) of 42.2 ×10⁻⁶ cm/s and a CC50 (Vero C1008) greater than 100 µM.
